The values that follow come from patent US20250312469A1 (CANGET BIOTEKPHARMA, priority 2024, published 2025).

For data set [1], the target named is T1, UbE2T (Homo sapiens, UniProt Q9NPD8).
T1 sequence (Q9NPD8 1-197): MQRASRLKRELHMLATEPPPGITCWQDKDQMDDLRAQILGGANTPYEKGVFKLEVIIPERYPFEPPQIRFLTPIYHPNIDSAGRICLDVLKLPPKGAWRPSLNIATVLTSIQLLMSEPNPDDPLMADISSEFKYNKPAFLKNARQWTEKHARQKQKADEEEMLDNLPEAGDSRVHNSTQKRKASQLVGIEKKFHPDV
Briefly: ITC, Flag-UbE2T. It counts as binding. Set-up: host or cells: HEK293T. The source says:
Purification of Flag-tagged DDX5 (Flag-DDX5), USP2a (Flag-USP2), UbE2T (Flag-(bE2T) and topoisomerase 1 (Top1) (Flag-Top1) proteins: Flag-DDX5, Flag-USP2, Flag-UbE2T and Flag-Topl proteins were purified from the protein expression vector-transfected HEK293T cells by using the FLAG® M Purification Kit for mammalian expression systems (CELLMM2-IKT, Sigma). Briefly, sub-confluent populations of HEK293T cells were transfected with expression vectors for Flag-DDX5, Flag-USP2, Flag-UbE2T and Flag-Top1 (OriGene) using Lipofectamine 2000 (Invitrogen) as per the manufacturer's instructions. After 72h of transfection, cells were lysed in Cell Lytic M lysis reagent (Sigma Cat #C2978) containing a protease inhibitor cocktail. […]
Replacement of the Tris-HCl buffer with the PBS buffer for purified proteins for drug-protein binding analyses using isothermal titration calorimetry (ITC): After the purified proteins were eluted from the agarose resin with 3×flag peptide, the same purified protein samples from different batches were combined. […] The PBS-resuspended protein samples were recovered from the reservoir and the protein concentrations were determined using the nano-drop reader (Bio-Rad) and BCA Protein Assay (Thermo/Pierce) for double-making sure the concentration. […]
(In general: In ITC the heat of successive injections is recorded.)

Data set [2] can be described thus: in vitro. The conditions noted are these: for microsomal CLint at 0.5 μM / half-life at 0.5 μM: both; for microsomal CLint at 0.5 μM: s9, CLint (intrinsic clearance); for microsomal CLint at 0.5 μM / half-life at 0.5 μM / % Remaining of Initial (n = 1): human liver S9 fraction; for half-life at 0.5 μM: s9, Half-life (min).
For data set [3], the target named is T2, bovine serum albumin (BSA) (Bos taurus, UniProt P02769).
T2 construct: purchased EMD (Billerica, MA)
Briefly: 3H-FL118 binding, Nanosep 3K centrifugal device. The conditions noted are these: negative control protein. On the procedure:
Then, 5-10 μg of the FLAGR M Purification Kit (Signa)-purified Flag-USP2a and Flag-UbE2T proteins in a volume of 20-50 μL, respectively, was transferred into the sample reservoir of a 1.5 mL Nanosep 3K Centrifugal Device. In parallel, a negative control Nanosep 3K Centrifugal Devices containing 10 μg bovine serum albumin (BSA) in 50 μL volume was also set up. Then, the 3 prepared Nanosep 3K Devices were centrifuged at 10,000 rpm for 10-15 min to eliminate the solution and retain the proteins in the sample reservoir. […] Lastly, all three of the sample reservoir devices were transferred into a scintillation vial containing enough scintillation solution to cover the entire sample reservoir devices for tritium (3H) counting on the LS 6500 Scintillation System (Backman Couler™).

Data set [4] has as its target P-gp (Homo sapiens, UniProt P08183).
Data set [5] relates to Panc-1 and MiaPaca-2 cells. Briefly: 3D cell spheroid formation and viability. It counts as cell-based, human. Here is the method: 3D) cell spheroid formation studies: Pancreatic cancer cells were cultured in the ultra-low attachment plates in the pancreatic cancer organoid culture medium. In some studies, to observe the spheroid formation, DDX5 KO pancreatic cancer cells in the presence and absence of Agrin at a concentration of 2.5 μg/mL, 5 μg/mL and/or 10 μg/mL for 6-7 days were cultured. […] Representative images were take during this time and cell viability was determined by MTT assay.

Molecules are shown by their SMILES.

Chain of P-gp (P08183 whole entry): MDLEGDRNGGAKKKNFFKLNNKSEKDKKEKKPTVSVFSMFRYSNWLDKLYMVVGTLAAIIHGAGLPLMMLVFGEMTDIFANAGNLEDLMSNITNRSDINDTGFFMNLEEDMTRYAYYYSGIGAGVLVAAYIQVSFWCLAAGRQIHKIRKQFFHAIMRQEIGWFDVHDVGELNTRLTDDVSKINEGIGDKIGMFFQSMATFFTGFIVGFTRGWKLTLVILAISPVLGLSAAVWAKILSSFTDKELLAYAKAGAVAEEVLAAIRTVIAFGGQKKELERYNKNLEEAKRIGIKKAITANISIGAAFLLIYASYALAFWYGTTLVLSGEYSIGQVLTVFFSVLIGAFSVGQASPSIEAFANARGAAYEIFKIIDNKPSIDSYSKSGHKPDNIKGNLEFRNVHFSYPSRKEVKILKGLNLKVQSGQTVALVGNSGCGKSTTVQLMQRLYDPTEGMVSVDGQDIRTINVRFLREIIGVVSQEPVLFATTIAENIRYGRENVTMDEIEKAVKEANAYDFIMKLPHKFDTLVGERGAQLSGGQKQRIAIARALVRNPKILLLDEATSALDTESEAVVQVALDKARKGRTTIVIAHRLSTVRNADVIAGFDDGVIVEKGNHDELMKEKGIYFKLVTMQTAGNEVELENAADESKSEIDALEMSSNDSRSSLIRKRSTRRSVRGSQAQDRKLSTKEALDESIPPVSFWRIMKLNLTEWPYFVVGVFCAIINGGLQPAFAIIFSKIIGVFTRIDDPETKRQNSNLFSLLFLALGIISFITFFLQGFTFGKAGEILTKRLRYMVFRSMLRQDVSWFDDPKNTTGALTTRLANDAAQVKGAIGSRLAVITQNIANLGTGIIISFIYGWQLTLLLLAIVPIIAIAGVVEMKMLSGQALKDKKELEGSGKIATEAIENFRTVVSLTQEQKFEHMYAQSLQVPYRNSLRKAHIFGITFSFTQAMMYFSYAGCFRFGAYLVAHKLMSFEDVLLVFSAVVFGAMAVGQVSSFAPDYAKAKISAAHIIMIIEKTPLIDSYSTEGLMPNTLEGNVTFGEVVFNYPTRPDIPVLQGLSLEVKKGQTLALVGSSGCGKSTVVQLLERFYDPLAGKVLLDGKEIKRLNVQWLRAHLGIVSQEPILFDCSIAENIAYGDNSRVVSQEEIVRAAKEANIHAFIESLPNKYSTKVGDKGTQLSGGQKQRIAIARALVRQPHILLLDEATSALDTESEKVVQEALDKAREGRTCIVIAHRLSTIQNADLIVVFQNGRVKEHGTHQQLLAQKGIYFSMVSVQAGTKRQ
T2 sequence (P02769 25-607): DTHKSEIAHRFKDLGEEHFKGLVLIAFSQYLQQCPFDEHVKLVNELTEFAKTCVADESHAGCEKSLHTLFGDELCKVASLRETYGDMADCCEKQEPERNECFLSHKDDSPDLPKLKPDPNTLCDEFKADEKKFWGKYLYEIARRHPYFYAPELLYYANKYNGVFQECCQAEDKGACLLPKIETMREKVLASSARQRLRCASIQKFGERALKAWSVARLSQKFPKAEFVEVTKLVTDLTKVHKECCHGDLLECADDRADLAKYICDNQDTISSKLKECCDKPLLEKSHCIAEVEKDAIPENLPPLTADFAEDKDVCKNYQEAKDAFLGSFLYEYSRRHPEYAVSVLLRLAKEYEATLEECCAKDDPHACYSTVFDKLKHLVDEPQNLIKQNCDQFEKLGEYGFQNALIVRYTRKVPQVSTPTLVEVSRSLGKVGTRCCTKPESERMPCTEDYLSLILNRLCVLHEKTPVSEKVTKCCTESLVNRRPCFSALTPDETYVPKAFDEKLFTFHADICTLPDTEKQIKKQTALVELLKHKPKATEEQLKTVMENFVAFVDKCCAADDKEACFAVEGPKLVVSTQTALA

Take `CCC1(O)C(=O)OCc2c1cc1n(c2=O)Cc2cc3cc4c(cc3nc2-1)OCO4` (stereo not shown) [FL118]: the dissociation constant (Kd) in data set [1] worked out at 0.16 µM. Also, the intrinsic metabolic clearance (microsomal CLint) at 0.5 μM was 11.1 µL/min/mg in data set [2] (human, calculated (in parentheses)) and under 11.6 µL/min/mg in data set [2] (human, bound). Besides, the half-life at 0.5 μM is 1.05 h in data set [2] (human, calculated (in parentheses), calculated half-life longer than the experiment) and over 1 h in data set [2] (human, expressed as > the longest incubation time). The “% Remaining of Initial (n = 1)” value in data set [2] (0 min) is 100%; in data set [2] (10 min), 82%; in data set [2] (20 min), 73%; in data set [2] (30 min), 69%; in data set [2] (60 min), 52%. The half-life entry in data set [2] (human, s9) was “long half-life”. In addition, the “3H CPM counts in retained parts” value in data set [3] is on record as 4,230 ± 370 CPM. Besides, the “inhibition of P-gp transport of digoxin” value in data set [4] (1.0 μM FL118) is given as “does not inhibit digoxin acting as a BCRP substrate”. Also, in data set [4] (Caco-2, digoxin as substrate, 1.0 μM FL118 or 1.0 μM Valspodar), the “P-gp Inhibition Potential Classification” value was “Negative (without inhibitor, and reduced by <50 with inhibitor: Negative)”. Moreover, in data set [5], the 3D spheroid formation entry was “inhibited”. Moreover, the “cell viability in 3D culture” value in data set [5] is “inhibited in a FL118 concentration-dependent manner”.

Broadly, the Kd is the equilibrium constant for the complex coming apart. For orientation: microsomal CLint means a measure of how fast metabolising enzymes remove a compound, apart from limits set by blood flow. Usually half-life stands for the time in which the quantity being followed falls by half.
